Laboratory results published in PubChem BioAssay (NCI).
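Test compounds were applied to cells in 96-well plates for 48 hours at 5 doses. GI50 = concentration required for 50% inhibition of growth. Definition used: TGI = concentration required for complete inhibition of growth.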

What was measured:
Test in all cases: NCI anticancer screen, dose series, 48 h
[1] = tested on: NCI-H23 lung
[2] = tested on: MDA-N
[3] = tested on: SK-MEL-2 melanoma
[4] = tested on: SK-OV-3 ovarian
[5] = tested on: SR leukemia
[6] = tested on: NCI/ADR-RES ovarian
[7] = tested on: 786-0 renal
[8] = tested on: OVCAR-3 ovarian
[9] = tested on: SNB-19 CNS
[10] = tested on: SF-539 CNS
[11] = tested on: COLO 205 colon
[12] = tested on: HOP-92 NSCLC
[13] = tested on: HS 578T breast
[14] = tested on: M14 melanoma
[15] = tested on: EKVX NSCLC
[16] = tested on: NCI-H460 lung
[17] = tested on: HCT-15 colon
[18] = tested on: T-47D breast
[19] = tested on: PC-3 prostate
[20] = tested on: MDA-MB-231 breast
[21] = tested on: OVCAR-8 ovarian
[22] = tested on: K-562 leukemia
[23] = tested on: MCF7 breast
[24] = tested on: U251 CNS
[25] = tested on: RXF 393 renal
[26] = tested on: MDA-MB-435
[27] = tested on: HOP-62 NSCLC
[28] = tested on: CAKI-1 renal
[29] = tested on: LOX IMVI melanoma
[30] = tested on: IGROV1 ovarian
[31] = tested on: SK-MEL-28 melanoma
[32] = tested on: SF-268 CNS
[33] = tested on: MALME-3M melanoma
[34] = tested on: UACC-257 melanoma
[35] = tested on: CCRF-CEM leukemia
[36] = tested on: HT29 colon
[37] = tested on: A549 NSCLC
[38] = tested on: SNB-75 CNS
[39] = tested on: SW-620 colon
[40] = tested on: TK-10 renal
[41] = tested on: HL-60(TB) leukemia
[42] = tested on: SF-295 CNS
[43] = tested on: MOLT-4 leukemia
[44] = tested on: BT-549 breast
[45] = tested on: OVCAR-4 ovarian
[46] = tested on: ACHN renal
[47] = tested on: NCI-H522 lung
[48] = tested on: A498 renal
[49] = tested on: HCT-116 colon
[50] = tested on: DU-145 prostate
[51] = tested on: SK-MEL-5 melanoma
[52] = tested on: KM12 colon
[53] = tested on: SN12C renal
[54] = tested on: OVCAR-5 ovarian
[55] = tested on: NCI-H226 lung
[56] = tested on: RPMI-8226 leukemia
[57] = tested on: UO-31 renal
[58] = tested on: HCC-2998 colon
[59] = tested on: UACC-62 melanoma

Work on C[CH2][Sn]([CH2]C)([O]C(=O)C(OC(C)=O)c1ccccc1)[O]C(=O)C(OC(C)=O)c1ccccc1 (configuration not stated) yielded a GI50 [1] of 15.5 µM, a TGI [1] of 29.8 µM and a GI50 [2] of 50 µM. The TGI [2] was over 100 µM, the GI50 [3] was 54.6 µM and the TGI [3] was over 100 µM. The GI50 [4] was over 100 µM, the TGI [4] was over 100 µM and the GI50 [5] was 24.3 µM. The TGI [5] was over 100 µM, the GI50 [6] was over 100 µM and the TGI [6] was over 100 µM. The GI50 [7] was 19.9 µM, the TGI [7] was 34.8 µM and the GI50 [8] was over 100 µM. For the same molecule, the TGI [8] was over 100 µM, the GI50 [9] was 52 µM and the TGI [9] was over 100 µM. It also gave a GI50 [10] of 17.5 µM, a TGI [10] of 33 µM and a GI50 [11] of 23.3 µM. It also gave a TGI [11] of 72.9 µM, a GI50 [12] of 18.6 µM and a TGI [12] of 34.9 µM. It also gave a GI50 [13] of 40 µM, a TGI [13] of over 100 µM and a GI50 [14] of 44.5 µM. For the same molecule, the TGI [14] was over 100 µM, the GI50 [15] was over 100 µM and the TGI [15] was over 100 µM. It also gave a GI50 [16] of over 100 µM, a TGI [16] of over 100 µM and a GI50 [17] of 25.7 µM. The TGI [17] was 82.3 µM, the GI50 [18] was 12.9 µM and the TGI [18] was 28 µM. It also gave a GI50 [19] of over 100 µM, a TGI [19] of over 100 µM and a GI50 [20] of 26.6 µM. For the same molecule, the TGI [20] was 77.8 µM, the GI50 [21] was over 100 µM and the TGI [21] was over 100 µM. It also gave a GI50 [22] of 14.6 µM, a TGI [22] of 45.9 µM and a GI50 [23] of 14.6 µM. For the same molecule, the TGI [23] was 27.8 µM, the GI50 [24] was 37.6 µM and the TGI [24] was over 100 µM. The GI50 [25] was 18.6 µM, the TGI [25] was 33.1 µM and the GI50 [26] was over 100 µM. The TGI [26] was over 100 µM, the GI50 [27] was over 100 µM and the TGI [27] was over 100 µM. The GI50 [28] was 72 µM, the TGI [28] was over 100 µM and the GI50 [29] was 18.2 µM. For the same molecule, the TGI [29] was 35.4 µM, the GI50 [30] was over 100 µM and the TGI [30] was over 100 µM. It also gave a GI50 [31] of 18.3 µM, a TGI [31] of 40.9 µM and a GI50 [32] of 16.6 µM. For the same molecule, the TGI [32] was 31.8 µM, the GI50 [33] was 18.4 µM and the TGI [33] was 33.5 µM. The GI50 [34] was 16.7 µM, the TGI [34] was 33.4 µM and the GI50 [35] was 1930 nM. It also gave a TGI [35] of 6.15 µM, a GI50 [36] of 46.7 µM and a TGI [36] of over 100 µM. The GI50 [37] was over 100 µM, the TGI [37] was over 100 µM and the GI50 [38] was 31.9 µM. The TGI [38] was 99.5 µM, the GI50 [39] was 16.3 µM and the TGI [39] was 36.8 µM. The GI50 [40] was 18.8 µM, the TGI [40] was 33 µM and the GI50 [41] was 10 µM. For the same molecule, the TGI [41] was 29.8 µM, the GI50 [42] was over 100 µM and the TGI [42] was over 100 µM. It also gave a GI50 [43] of 17.2 µM, a TGI [43] of 60.9 µM and a GI50 [44] of 16.1 µM. The TGI [44] was 29.7 µM, the GI50 [45] was 50 µM and the TGI [45] was over 100 µM. The GI50 [46] was 17.3 µM, the TGI [46] was 31.1 µM and the GI50 [47] was 1580 nM. It also gave a TGI [47] of 4.35 µM, a GI50 [48] of 19.8 µM and a TGI [48] of 35.6 µM. For the same molecule, the GI50 [49] was 92.6 µM, the TGI [49] was over 100 µM and the GI50 [50] was 94.7 µM. It also gave a TGI [50] of over 100 µM, a GI50 [51] of 68.1 µM and a TGI [51] of over 100 µM. The GI50 [52] was over 100 µM, the TGI [52] was over 100 µM and the GI50 [53] was over 100 µM. For the same molecule, the TGI [53] was over 100 µM, the GI50 [54] was 41.2 µM and the TGI [54] was over 100 µM. For the same molecule, the GI50 [55] was 29 µM, the TGI [55] was 92.7 µM and the GI50 [56] was 11.2 µM. For the same molecule, the TGI [56] was 36.9 µM, the GI50 [57] was 19.5 µM and the TGI [57] was 43.4 µM.

COC(=O)C(Cc1ccccc1)NP(=O)(O)OCC1OC(n2cc(F)c(=O)[nH]c2=O)CC1O (configuration not stated) showed a TGI [1] of over 100 µM, a TGI [2] of over 100 µM and a TGI [3] of over 100 µM. It also gave a TGI [4] of over 100 µM, a TGI [5] of over 56.5 µM and a TGI [6] of over 100 µM. For the same molecule, the TGI [7] was over 100 µM, the TGI [8] was over 100 µM and the TGI [9] was over 100 µM. The TGI [10] was 63.9 µM, the TGI [11] was over 100 µM and the TGI [12] was over 55.2 µM. The TGI [13] was over 100 µM, the TGI [14] was over 100 µM and the TGI [15] was over 100 µM. The TGI [16] was over 100 µM, the TGI [17] was over 100 µM and the TGI [18] was over 100 µM. It also gave a TGI [19] of over 100 µM, a TGI [20] of over 100 µM and a TGI [21] of over 100 µM. For the same molecule, the TGI [58] was over 100 µM, the TGI [22] was over 100 µM and the TGI [23] was over 100 µM. For the same molecule, the TGI [24] was over 100 µM, the TGI [25] was over 100 µM and the TGI [26] was over 100 µM. The TGI [27] was over 100 µM, the TGI [28] was over 100 µM and the TGI [29] was over 100 µM. It also gave a TGI [30] of over 100 µM, a TGI [31] of over 100 µM and a TGI [32] of over 100 µM. It also gave a TGI [33] of over 100 µM, a TGI [34] of over 100 µM and a TGI [36] of over 100 µM. It also gave a TGI [37] of over 100 µM, a TGI [38] of over 100 µM and a TGI [39] of over 100 µM. It also gave a TGI [40] of over 100 µM, a TGI [41] of over 100 µM and a TGI [42] of over 100 µM. The TGI [43] was over 93.9 µM, the TGI [44] was over 100 µM and the TGI [45] was over 100 µM. For the same molecule, the TGI [46] was over 100 µM, the TGI [47] was over 100 µM and the TGI [48] was over 100 µM. It also gave a TGI [49] of over 100 µM, a TGI [50] of over 100 µM and a TGI [51] of over 100 µM. For the same molecule, the TGI [52] was over 100 µM, the TGI [53] was over 100 µM and the TGI [59] was over 100 µM. It also gave a TGI [54] of over 100 µM, a TGI [55] of over 100 µM and a TGI [56] of over 100 µM. It also gave a TGI [57] of over 100 µM.
